The target in data set [1] is T1, BuChE (from equine serum) (Equus caballus, UniProt P81908).
T1 construct: purchased Merck & Co; host or cells: equine serum
Briefly: biochemical. As to conditions: mean ± SEM. Here is the method:
(§1) Photometric 96-well microplates made from polystyrene (Thermo Scientific, Waltham, […]. USA) were used for measurement purposes.
(§2) AChE and BuChE inhibitory activities were measured by the spectrophotometric method of Ellman, with slight modification. Briefly, all in vitro assays were performed in 0.1 M NaH2PO4/Na2HPO4 buffer, pH 7.4, using a THERMO Enzyme-labeled Instrument. The enzyme solutions were prepared to obtain 2.0 units/mL in 2.0 mL aliquots. The assay medium (1 mL) consisted of phosphate buffer (pH 7.4), 10 μL of the enzyme, 30 μL of 0.01 M DTNB, and 30 μL of substrate (ATC or BTC) at a concentration of 0.01 M. The test and reference compounds were first dissolved in DMSO (5‰) and fetal bovine serum (1‰), and then diluted in 0.1 M NaH2PO4/Na2HPO4 buffer (pH 7.4) to provide a final concentration range. The inhibitors were added to the assay solution containing enzyme, buffer, and DTNB with pre-incubation for 20 min at 37 °C, prior to the addition of the substrate. The activity was determined by measuring the increase in absorbance at 410 nm at 1 min intervals at 37 °C. The data were calculated according to the method described by Ellman et al. Each concentration was assayed in triplicate. Blanks containing all of the components except AChE were included in the analyses.

Another data set has as its target T2, AChE (from electric eel) (Electrophorus electricus, UniProt O42275).
T2 construct: purchased Merck & Co
In words: biochemical. Type of data set: biochemical. As to conditions: for Selectivity Index = IC50 (BChE)/IC50 (AChE): IC50 BuChE/IC50 AChE; for IC50: mean ± SEM, NA = No potent inhibitory activity. As for the experimental part: as §1, §2

The target of another data set is T3, Aβ (1-42) (Homo sapiens, UniProt P05067).
T3 construct: Aβ (1-42) peptide (Sigma-Aldrich); purchased Sigma-Aldrich
In words: biochemical. As to conditions: self-induced aggregation, thioflavin-T; Aβ 20 μM, 37 °C, 24 h; NA = No potent inhibitory activity. As for the experimental part:
A Thioflavin T-based fluorometric assay was performed in order to investigate the self-induced Aβ (1-42) aggregation. Briefly, compounds to be tested were firstly dissolved in DMSO to obtain a 10 mM solution and then diluted in phosphate buffer (pH 7.4) to provide a final concentration range. […] After incubation, thioflavin-T (5 μM in 50 mM glycine-NaOH buffer, pH 8.0) was added into the above 96-well microplate and the samples were diluted to a final volume of 150 μL. […] Each inhibitor was run in triplicate.

A further data set concerns SH-SY5Y cells. The format is cell-based. Here is the method: To probe whether such a type of target compounds involves cytotoxic effects, we respectively treated HepG2 cells and SH-SY5Y cells with several concentrations of the corresponding compound. Cell viability was determined by a CCK-8 assay.
SH-SY5Y cells (human neuroblastoma cell line from American Type Culture Collection, ATCC, Manassas, VA, USA) were seeded into 96-well plates at a density of 4 × 10^4 cells/mL in Dulbecco’s modified Eagle’s medium (DMEM) supplemented with 10% FBS and 100 U/mL of penicillin/streptomycin (Gino Biomedical Technology Co. LTD., Hangzhou, China), and incubated in a humidified atmosphere containing 5% CO2 at 37 °C. […] After this incubation, 10 μL/well of CCK-8 (5 mg/mL) was added and incubated at 37 °C for 4 h. The optical density (OD) of each well was measured using an Epoch Microplate Spectrophotometer (BioTek Instruments, Inc., Winooski, VT, USA) with a test wavelength of 450, 630 nm.

In another data set the test system is HepG2 cells. The format is cell-based. Here is the method:
One of the best documented side-effects of the drug discovery and development of AD is cytotoxicity. To probe whether such a type of target compounds involves cytotoxic effects, we respectively treated HepG2 cells and SH-SY5Y cells with several concentrations of the corresponding compound. Cell viability was determined by a CCK-8 assay. […].
HepG2 cells (human hepatocellular liver carcinoma cell line from American Type Culture Collection, ATCC) were cultured in Eagle’s minimum essential medium (EMEM) supplemented with 10% heat-inactivated fetal bovine serum (FBS), and 100 U/mL of penicillin/streptomycin (Gino Biomedical Technology Co. LTD., Hangzhou, China). Cultures were seeded into flasks containing supplemented medium and maintained at 37 °C in a humidified atmosphere of 5% CO2. For assays, cells (1.0 × 10^5 cells/well) were seeded in a 96-well plate in complete medium, the medium was removed after 24 h, and cells were exposed to the increasing concentrations of compounds 8q or 8r (0, 25, 50, 125, 200, 300, 400, and 500 μM) in DMEM with no serum for a further 24 h. Cell survival was measured through a CCK-8 assay. All compounds were dissolved in pure DMSO.

17 molecules from paper PMC6222487 (Molecules : A Journal of Synthetic Chemistry and Natural …, 2018) can be followed below.

One may read the IC50 as the concentration needed to halve the response being measured. Low readings indicate greater potency, high ones weaker potency.

Where two headings read alike, the source gives them in different places.

T2 sequence (O42275 24-633): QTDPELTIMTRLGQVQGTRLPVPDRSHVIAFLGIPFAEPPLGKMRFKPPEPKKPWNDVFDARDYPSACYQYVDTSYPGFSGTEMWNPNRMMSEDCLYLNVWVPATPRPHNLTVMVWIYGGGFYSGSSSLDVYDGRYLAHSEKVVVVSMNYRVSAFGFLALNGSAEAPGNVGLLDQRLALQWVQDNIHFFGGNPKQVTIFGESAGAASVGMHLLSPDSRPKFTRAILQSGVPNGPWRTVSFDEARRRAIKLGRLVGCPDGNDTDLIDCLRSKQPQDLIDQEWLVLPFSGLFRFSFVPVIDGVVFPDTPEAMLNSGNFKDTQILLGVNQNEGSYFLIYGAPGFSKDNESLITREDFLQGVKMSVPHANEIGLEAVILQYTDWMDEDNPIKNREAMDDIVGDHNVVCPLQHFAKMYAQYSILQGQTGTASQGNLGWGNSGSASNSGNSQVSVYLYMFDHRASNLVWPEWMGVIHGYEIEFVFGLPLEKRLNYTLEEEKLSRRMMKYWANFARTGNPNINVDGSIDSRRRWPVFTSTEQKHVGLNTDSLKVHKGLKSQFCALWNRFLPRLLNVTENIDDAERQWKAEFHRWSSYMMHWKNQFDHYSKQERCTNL
T3 sequence (P05067 672-713): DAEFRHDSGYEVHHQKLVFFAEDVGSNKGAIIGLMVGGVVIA
T1 sequence (P81908 whole entry): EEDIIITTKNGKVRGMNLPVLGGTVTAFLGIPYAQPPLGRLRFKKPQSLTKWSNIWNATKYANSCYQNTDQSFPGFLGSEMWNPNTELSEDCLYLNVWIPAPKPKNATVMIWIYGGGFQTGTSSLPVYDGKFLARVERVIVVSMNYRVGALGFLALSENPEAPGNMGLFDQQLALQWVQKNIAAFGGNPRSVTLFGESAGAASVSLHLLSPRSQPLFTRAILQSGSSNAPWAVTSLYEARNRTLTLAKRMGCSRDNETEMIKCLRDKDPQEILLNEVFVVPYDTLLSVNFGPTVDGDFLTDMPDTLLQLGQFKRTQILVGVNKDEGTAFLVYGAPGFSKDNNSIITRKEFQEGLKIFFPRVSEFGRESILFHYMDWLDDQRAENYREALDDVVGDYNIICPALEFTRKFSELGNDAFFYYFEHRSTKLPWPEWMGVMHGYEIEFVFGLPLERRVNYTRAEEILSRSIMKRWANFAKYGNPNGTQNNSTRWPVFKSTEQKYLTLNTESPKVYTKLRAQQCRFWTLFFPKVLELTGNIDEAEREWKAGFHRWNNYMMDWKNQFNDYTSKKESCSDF

In turn, `COc1ccc(CC(=O)OCCCOC(=O)c2nc(C)c(C)nc2C)cc1F` [Compound 8n, 3-{[(3-Fluoro-4-methoxyphenyl)acetyl]oxy}propyl 3,5,6-trimethylpyrazine-2-carboxylate] registered an IC50 in data set [1] of 3060 ± 340 µM. Also, the “Selectivity Index = IC50 (BChE)/IC50 (AChE)” value (“Selectivity Index = IC50” below) at AChE (from electric eel) is reported as 20.67.

For `COc1ccc(/C=C/C(=O)OCCCOC(=O)c2nc(C)c(C)nc2C)cc1OC` [Compound 8o, 3-{[(2E)-3-(3,4-Dimethoxyphenyl)prop-2-enoyl]oxy}propyl 3,5,6-trimethyl-pyrazine-2-carboxylate], the IC50 in data set [1] was determined as 3970 ± 100 µM; against Aβ (1-42) it was 45.29 ± 0.033 µM; on AChE (from electric eel), 0.00324 ± 0.0001 µM. Further, the “Selectivity Index = IC50” value at AChE (from electric eel) is 1.23 × 10^6.

Molecule `Cc1nc(C)c(C(=O)OCCCOC(=O)c2ccc(F)cc2)nc1C` [Compound 8i, 3-[(4-Fluorobenzoyl)oxy]propyl 3,5,6-trimethylpyrazine-2-carboxylate] showed an IC50 against Aβ (1-42) of 211.18 ± 0.039 µM. Further, the “Selectivity Index = IC50” value on AChE (from electric eel) was 1.14 × 10^2.

On to `Cc1nc(C)c(C(=O)OCCCOC(=O)c2cccc(Cl)c2)nc1C` [Compound 8f, 3-[(3-Chlorobenzoyl)oxy]propyl 3,5,6-trimethylpyrazine-2-carboxylate], for which the IC50 is 3270 ± 60 µM in data set [1], 45.88 ± 0.024 µM at Aβ (1-42) and 0.00661 ± 0.00013 µM on AChE (from electric eel). Also, the “Selectivity Index = IC50” value at AChE (from electric eel) is on record as 4.95 × 10^5.

`Cc1nc(C)c(C(=O)OCCCOC(=O)Cc2ccc(Br)cc2)nc1C` [Compound 8m, 3-{[(4-Bromophenyl)acetyl]oxy}propyl 3,5,6-trimethylpyrazine-2-carboxylate]: on Aβ (1-42), the IC50 turned out to be 200.84 ± 0.016 µM. The “Selectivity Index = IC50” value on AChE (from electric eel) worked out at 52.17.

For `Cc1nc(C)c(C(=O)OCCCOC(=O)c2cccc(F)c2)nc1C` [Compound 8k, 3-[(3-Fluorobenzoyl)oxy]propyl 3,5,6-trimethylpyrazine-2-carboxylate], the IC50 in data set [1] turned out to be 5490 ± 150 µM; against Aβ (1-42) it was 5.1 ± 0.04 µM. The “Selectivity Index = IC50” value at AChE (from electric eel) is 9.49.

Take `COc1ccc(C(=O)OCCCOC(=O)c2nc(C)c(C)nc2C)c(OC)c1` [Compound 8c, 3-[(2,4-Dimethoxybenzoyl)oxy]propyl 3,5,6-trimethylpyrazine-2-carboxylate]: the IC50 turned out to be 2700 ± 30 µM in data set [1], 22.54 ± 0.014 µM on Aβ (1-42) and 0.3879 ± 0.00045 µM against AChE (from electric eel).

For the molecule `Cc1nc(C)c(C(=O)OCCCOC(=O)c2cccc(Br)c2)nc1C` [Compound 8g, 3-[(3-Bromobenzoyl)oxy]propyl 3,5,6-trimethylpyrazine-2-carboxylate], in data set [1], the IC50 was 21100 ± 460 µM. The “Selectivity Index = IC50” value on AChE (from electric eel) worked out at 6.23.

In data set [1], `COc1cccc(C(=O)OCCCOC(=O)c2nc(C)c(C)nc2C)c1OC` [Compound 8a, 3-[(2,3-Dimethoxybenzoyl)oxy]propyl 3,5,6-trimethylpyrazine-2-carboxylate] had an IC50 of 3630 ± 70 µM. Further, at AChE (from electric eel), the “Selectivity Index = IC50” value is 2.16 × 10^4 and the IC50 was 0.1679 ± 0.00039 µM.

As for `COc1cc(OC)cc(C(=O)OCCCOC(=O)c2nc(C)c(C)nc2C)c1` [Compound 8b, 3-[(3,5-Dimethoxybenzoyl)oxy]propyl 3,5,6-trimethylpyrazine-2-carboxylate], the IC50 in data set [1] amounted to 5640 ± 380 µM; against Aβ (1-42) it was 3.66 ± 0.104 µM; against AChE (from electric eel), 0.00443 ± 0.00035 µM. For the same molecule, on AChE (from electric eel), the “Selectivity Index = IC50” value is on record as 1.27 × 10^6.

As for `COc1cccc(OC)c1C(=O)OCCCOC(=O)c1nc(C)c(C)nc1C` [Compound 8e, 3-[(2,6-Dimethoxybenzoyl)oxy]propyl 3,5,6-trimethylpyrazine-2-carboxylate], the IC50 was determined as 340 ± 30 µM in data set [1], 55.86 ± 0.035 µM on Aβ (1-42) and 0.1438 ± 0.00025 µM against AChE (from electric eel). For the same molecule, the “Selectivity Index = IC50” value on AChE (from electric eel) was 2.36 × 10^3.

With `COc1cc(/C=C/C(=O)OCCCOC(=O)c2nc(C)c(C)nc2C)cc(OC)c1OC` [Compound 8p, 3-{[(2E)-3-(3,4,5-Trimethoxyphenyl)prop-2-enoyl]oxy}propyl 3,5,6-tri-methylpyrazine-2-carboxylate], the IC50 was 4020 ± 30 µM in data set [1], 71.28 ± 0.044 µM against Aβ (1-42) and 0.09351 ± 0.0002 µM against AChE (from electric eel). In addition, the “Selectivity Index = IC50” value at AChE (from electric eel) is reported as 4.30 × 10^4.

`Cc1nc(C)c(C(=O)OCCCOC(=O)c2ccc(Br)cc2)nc1C` [Compound 8h, 3-[(4-Bromobenzoyl)oxy]propyl 3,5,6-trimethylpyrazine-2-carboxylate] yielded an IC50 in data set [1] of 2490 ± 290 µM. At AChE (from electric eel), the “Selectivity Index = IC50” value was determined as 2.62.

With `COc1ccc(C(=O)OCCCOC(=O)c2nc(C)c(C)nc2C)cc1OC` [Compound 8d, 3-[(3,4-Dimethoxybenzoyl)oxy]propyl 3,5,6-trimethylpyrazine-2-carboxylate], the 50% inhibitory concentration (IC50) in data set [1] was 4290 ± 120 µM; against Aβ (1-42), 51.81 ± 0.047 µM; at AChE (from electric eel) it was 0.00412 ± 0.00024 µM. Besides, the “Selectivity Index = IC50” value at AChE (from electric eel) is given as 1.02 × 10^6.

On to `Nc1c2c(nc3ccccc13)CCCC2` [Tacrine, reference compound], for which the Cell viability in the data set on SH-SY5Y cells (25 µM) is 87.89 ± 0.85 ^ns percentage of control; in the data set with SH-SY5Y cells (50 µM), 88.17 ± 1.55 ^ns percentage of control; in the data set with SH-SY5Y cells (125 µM), 75.42 ± 0.78 percentage of control; in the data set on SH-SY5Y cells (200 µM), 48.75 ± 0.43 percentage of control; in the data set with SH-SY5Y cells (300 µM), 43.39 ± 2.69 percentage of control; in the data set on SH-SY5Y cells (400 µM), 34.69 ± 2.86 percentage of control. For the same molecule, the Cell viability in the data set with HepG2 cells (25 µM) is reported as 99.78 ± 1.07 ^ns percentage of control; in the data set on HepG2 cells (50 µM) it was 95.02 ± 2.30 ^ns percentage of control; in the data set with HepG2 cells (125 µM), 83.72 ± 0.73 percentage of control; in the data set with HepG2 cells (200 µM), 81.80 ± 1.86 percentage of control; with HepG2 cells (300 µM), 74.32 ± 3.93 percentage of control; in the data set with HepG2 cells (400 µM) it was 23.61 ± 0.05 percentage of control. In addition, the Cell viability in the data set on HepG2 cells (500 µM) is reported as 19.92 ± 0.05 percentage of control.

As for `COc1cc(CC(=O)OCCCOC(=O)c2nc(C)c(C)nc2C)cc(OC)c1OC` [Compound 8l, 3-{[(3,4,5-Trimethoxyphenyl)acetyl]oxy}propyl 3,5,6-trimethylpyrazine-2-carboxylate], the IC50 in data set [1] came out at 3960 ± 260 µM; on Aβ (1-42), 77.45 ± 0.029 µM; against AChE (from electric eel) it was 0.3034 ± 0.00026 µM. In addition, the “Selectivity Index = IC50” value on AChE (from electric eel) is 1.31 × 10^4.

As to `COc1ccc(C(=O)OCCCOC(=O)c2nc(C)c(C)nc2C)cc1F` [Compound 8j, 3-[(3-Fluoro-4-methoxybenzoyl)oxy]propyl 3,5,6-trimethylpyrazine-2-carboxylate], the IC50 in data set [1] was found to be 857 ± 2 µM; at Aβ (1-42) it was 7.12 ± 0.012 µM. The “Selectivity Index = IC50” value on AChE (from electric eel) was found to be 2.97.
